This is an account of results in patent US20250313653A1, “GUEST/HOST INCLUSION COMPLEXES CONTAINING S-NITROSOGLUTATHIONE AND METHODS OF USE THEREOF” (VIRGINIA COMMONWEALTH UNIVERSITY, priority 2022, published 2025).

Values joined by “and” are separate entries in the source; they are usually repeats but may differ in a detail not shown here. Equal entries are not always repeated. “Also recorded” adds a separate entry of the source.

The nature of data set [1]: GSNO thermal decomposition via UV-Vis absorption spectroscopy. The format is physicochemical. As to conditions: for stabilization effect on GSNO (remaining GSNO after 48 h): 2-day experiment, 0.05 M GSNO in 0.05 M PB with 0.1 M CD derivative, dark, 37° C.; for order of enhancement of GSNO stability (reduced decomposition reactivity) by the host CD: 0.1 M GSNO solution containing 0.1 M CD, pH 7.4, 37° C. On the procedure: GSNO was synthesized by nitrosation of reduced L-glutathione in acidified nitrite as previously reported.^52 After collecting GSNO precipitates and washing them using cold water and acetone, GSNO powder was vacuum dried for 4 h and stored at −20° C. GSNO powders were dissolved in phosphate buffer (PB) containing the same mole of Na2HPO4 before the pH adjustment. For example, the formal concentration of Na2HPO4 is 0.1 M when the GSNO concentration is 0.1 M. One hundred μM EDTA was always added to each solution before the solution pH was finally adjusted to 7.4 via NaOH. EDTA is a chelating agent to mask Cu^2+, a S-nitrosothiol catalyst that may exist in solvents and chemicals as an impurity.^53 For solutions with reactive agents, BSA, ascorbic acid, or cysteine was added before the pH adjustment. To prepare GSNO-CD solutions, appropriate amounts of CD powders were dissolved into the GSNO solutions prior to the pH adjustment.
Aqueous GSNO solutions were contained in 1.5 mL disposable polystyrene cuvettes. The cuvette was caped and further sealed with parafilm. The concentrations of GSNO during storage at 37° C. or 25° C. in the dark were monitored by a UV-vis spectrophotometer (Go Direct® Fluorescence/UV-VIS Spectrophotometer) at a wavelength of 545 nm. A 4 W LED white light was used as the light source for the photodecomposition experiment at room temperature. The distance between the light source and the cuvettes was approximately 10 cm. All GSNO decomposition experiments were triplicated, and the GSNO concentration was expressed as mean±standard deviation.

The conditions of data set [2]: in water; cited from earlier work.
Data set [3] concerns fibroblast L929 cells. The data set is described as follows: Cytotoxicity test (MTS assay) of lock-solution-filled silicone tubes. The class given is cell-based, mouse. The following applies: 24-h incubation of L929 cells with silicone tubes filled with the lock solution. The procedure: L929 murine fibroblast cells were suspended in complete media (DMEM with 1% penicillin/streptomycin and 10% FBS) before being seeded in a 24-well plate at a concentration of 5×10^5 cells per well. After 24 h of incubation, the attached cells in each well were incubated in fresh media containing a sterilized 1-cm silicone tube (HelixMark® 60-011-07) filled with a lock solution with buffer, GSNO, or GSNO-αCD and with both ends sealed. MTS assays were performed following the manufacturer's procedure after an additional 24-h incubation. Absorbance at 490 nm was measured by a Cytation 3 imaging plate reader (Biotek).
Background: Formazan colour is commonly taken as a measure of viable cells.

As for “2-hydroxypropyl alpha cyclodextrin [2-hydroxypropyl αCD]”, in data set [1], the “stabilization effect on GSNO (remaining GSNO after 48 h)” value is “significant stabilization effect”.

In the case of `CC(=O)N[C@H](C(=O)O)C(C)(C)SN=O` (racemic) [S-Nitroso-N-acetylpenicillamine], the aqueous solubility in data set [2] was 2.1 mg/mL and < 0.01 M. Consider `CC(O)COC[C@H]1O[C@@H]2O[C@H]3[C@H](O)[C@@H](O)[C@@H](O[C@H]4[C@H](O)[C@@H](O)[C@@H](O[C@H]5[C@H](O)[C@@H](O)[C@@H](O[C@H]6[C@H](O)[C@@H](O)[C@@H](O[C@H]7[C@H](O)[C@@H](O)[C@@H](O[C@H]8[C@H](O)[C@@H](O)[C@@H](O[C@H]1[C@H](O)[C@H]2O)O[C@@H]8COCC(C)O)O[C@@H]7COCC(C)O)O[C@@H]6COCC(C)O)O[C@@H]5COCC(C)O)O[C@@H]4COCC(C)O)O[C@@H]3COCC(C)O` (stereo partly drawn) [HP βCD, 2-hydroxypropyl βCD], for which the “order of enhancement of GSNO stability (reduced decomposition reactivity) by the host CD” value in data set [1] is recorded as “αCD>γCD>HP βCD”; in data set [1] (listed as hydroxypropyl βCD), “αCD>γCD>hydroxypropyl βCD”.

For the compound `OC[C@H]1O[C@@H]2O[C@H]3[C@H](O)[C@@H](O)[C@@H](O[C@H]4[C@H](O)[C@@H](O)[C@@H](O[C@H]5[C@H](O)[C@@H](O)[C@@H](O[C@H]6[C@H](O)[C@@H](O)[C@@H](O[C@H]7[C@H](O)[C@@H](O)[C@@H](O[C@H]1[C@H](O)[C@H]2O)O[C@@H]7CO)O[C@@H]6CO)O[C@@H]5CO)O[C@@H]4CO)O[C@@H]3CO` [αCD, alpha cyclodextrin], in data set [1], the “order of enhancement of GSNO stability (reduced decomposition reactivity) by the host CD” value is reported as “αCD>γCD>hydroxypropyl βCD; also recorded: αCD>γCD>HP βCD” and the “stabilization effect on GSNO (remaining GSNO after 48 h)” value is “best”. In addition, the “cytotoxicity / cell viability (MTS)” value in data set [3] is recorded as “no difference in the cell viability”. On to `OC[C@H]1O[C@@H]2O[C@H]3[C@H](O)[C@@H](O)[C@@H](O[C@H]4[C@H](O)[C@@H](O)[C@@H](O[C@H]5[C@H](O)[C@@H](O)[C@@H](O[C@H]6[C@H](O)[C@@H](O)[C@@H](O[C@H]7[C@H](O)[C@@H](O)[C@@H](O[C@H]8[C@H](O)[C@@H](O)[C@@H](O[C@H]9[C@H](O)[C@@H](O)[C@@H](O[C@H]1[C@H](O)[C@H]2O)O[C@@H]9CO)O[C@@H]8CO)O[C@@H]7CO)O[C@@H]6CO)O[C@@H]5CO)O[C@@H]4CO)O[C@@H]3CO` [γCD, gamma cyclodextrin], for which, in data set [1], the “order of enhancement of GSNO stability (reduced decomposition reactivity) by the host CD” value was “αCD>γCD>hydroxypropyl βCD; also recorded: αCD>γCD>HP βCD”. As for methyl alpha cyclodextrin [methyl αCD], in data set [1], the “stabilization effect on GSNO (remaining GSNO after 48 h)” value is “significant stabilization effect”.

A word on the aqueous solubility: it is the dissolved amount per volume that the medium holds.
